In ChEMBL document CHEMBL1697723, “A predictive ligand-based Bayesian model for human drug-induced liver injury” (Drug Metab Dispos, 2010):

System: Hepatotoxicity
Experiment: Human drug-induced liver injury (DILI) modelling dataset from Ekins et al
Settings: not given

SMILES	Hepatotoxicity
Br.COc1ccc2c(c1)[C@]13CCCC[C@@H]1[C@H](C2)N(C)CC3.O [DEXTROMETHORPHAN HYDROBROMIDE]	DILI negative (training set)
Clc1ccc2c(c1)C(N1CCNCC1)=Nc1ccccc1O2 [AMOXAPINE]	DILI negative (training set)
N[C@H](C(=O)O)[C@@H]1CC(Cl)=NO1 [ACIVICIN]	DILI negative (training set)
COc1cc(N)c(Cl)cc1C(=O)NC1CCN(CCCOc2ccc(F)cc2)CC1OC (stereo not drawn) [CISAPRIDE]	DILI negative (training set)
NCCCC[C@H](N[C@@H](CCc1ccccc1)C(=O)O)C(=O)N1CCC[C@H]1C(=O)O [LISINOPRIL ANHYDROUS]	DILI positive (training set)
Cc1onc(-c2ccccc2Cl)c1C(=O)N[C@@H]1C(=O)N2[C@@H]1SC(C)(C)[C@@H]2C(=O)[O-].O.[Na+] [CLOXACILLIN SODIUM]	DILI positive (test set)
CC(=O)Nc1cccc(O)c1 [METACETAMOL]	DILI negative (training set)
CC(CCc1ccccc1)NCC(O)c1ccc(O)c(C(N)=O)c1 (stereo not drawn) [LABETALOL]	DILI positive (training set)
O=C(O)c1cc(-c2ccccc2)nc2ccccc12 [CINCHOPHEN]	DILI positive (test set)
CS(=O)(=O)O.Cc1ccc(N(CC2=NCCN2)c2cccc(O)c2)cc1 [PHENTOLAMINE MESYLATE]	DILI positive (training set)
CC[C@@]1(O)C[C@H](O[C@H]2C[C@H](N(C)C)[C@H](O[C@H]3C[C@H](O)[C@H](O[C@H]4CCC(=O)[C@H](C)O4)[C@H](C)O3)[C@H](C)O2)c2c(cc3c(c2O)C(=O)c2c(O)cccc2C3=O)[C@H]1C(=O)OC.Cl [ACLARUBICIN HYDROCHLORIDE]	DILI negative (test set)
CO[C@@]1(NC(=O)Cc2cccs2)C(=O)N2C(C(=O)O)=C(COC(N)=O)CS[C@@H]21 [CEFOXITIN]	DILI positive (test set)
O=c1[nH]c(=O)n([C@@H]2O[C@H](CO)[C@@H](O)[C@@H]2F)cc1I [FIALURIDINE]	DILI positive (test set)
CC1CN(c2cc3c(cc2F)c(=O)c(C(=O)O)cn3-c2ccc(F)cc2F)CCN1 (stereo not drawn) [TEMAFLOXACIN]	DILI positive (test set)
CC1(C)O[C@@H]2[C@@H](CO[C@@]3(COS(N)(=O)=O)OC(C)(C)O[C@@H]23)O1 [TOPIRAMATE]	DILI negative (test set)
NS(=O)(=O)c1cc2c(cc1Cl)NCNS2(=O)=O [HYDROCHLOROTHIAZIDE]	DILI positive (training set)
[N-]=[N+]=CC(=O)OC[C@H](N)C(=O)O [AZASERINE]	DILI positive (training set)
Oc1ccccc1Br	DILI positive (test set)
CC1=C(CC(=O)O)c2cc(F)ccc2/C1=C\c1ccc([S+](C)[O-])cc1 (stereo not drawn)	DILI positive (training set)
CN1CCC(=C2c3ccccc3CCc3cccnc32)CC1.O=C(O)/C=C\C(=O)O.O=C(O)/C=C\C(=O)O [AZATADINE MALEATE]	DILI positive (test set)
CCCCCOC(=O)c1ccccc1C(=O)OCCCCC	DILI positive (test set)
CC(C)N(CCC(C(N)=O)(c1ccccc1)c1ccccn1)C(C)C.O=P(O)(O)O (stereo not drawn) [DISOPYRAMIDE PHOSPHATE]	DILI positive (training set)

SMILES	Hepatotoxicity
N=C(N)NCCN1CCCCCCC1.N=C(N)NCCN1CCCCCCC1.O=S(=O)(O)O [GUANETHIDINE SULFATE]	DILI positive (test set)
CS(=O)(=O)OCCCCOS(C)(=O)=O [BUSULFAN]	DILI positive (training set)
COCCOC(=O)C1=C(C)NC(C)=C(C(=O)OC(C)C)C1c1cccc([N+](=O)[O-])c1 (stereo not drawn) [NIMODIPINE]	DILI positive (training set)
CC(C)NNC(=O)c1ccncc1 [IPRONIAZID]	DILI positive (test set)
CCn1cc(C(=O)O)c(=O)c2ccc(C)nc21 [NALIDIXIC ACID]	DILI positive (training set)
Cc1nc(C)c2c(n1)N(Cc1ccc(-c3ccccc3-c3nnn[nH]3)cc1)C(=O)CC2 [TASOSARTAN]	DILI positive (test set)
CC(c1cc2ccccc2s1)N(O)C(N)=O (stereo not drawn) [ZILEUTON]	DILI positive (training set)
C[C@H]1COc2c(N3CCN(C)CC3)c(F)cc3c(=O)c(C(=O)O)cn1c23.C[C@H]1COc2c(N3CCN(C)CC3)c(F)cc3c(=O)c(C(=O)O)cn1c23.O [LEVOFLOXACIN]	DILI negative (training set)
NC[C@@H]1O[C@H](O[C@H]2[C@@H](O)[C@H](O[C@@H]3[C@@H](O)[C@H](N)C[C@H](N)[C@H]3O[C@H]3O[C@H](CO)[C@@H](O)[C@H](O)[C@H]3N)O[C@@H]2CO)[C@H](N)[C@@H](O)[C@@H]1O.O=S(=O)(O)O [PAROMOMYCIN SULFATE]	DILI negative (training set)
CCC(=O)OCC(=O)[C@@]1(OC(=O)CC)[C@@H](C)C[C@H]2[C@@H]3CCC4=CC(=O)C=C[C@]4(C)[C@@]3(Cl)[C@@H](O)C[C@@]21C [BECLOMETHASONE DIPROPIONATE]	DILI negative (training set)
Cc1cc(C(C)(C)C)c(O)c(C(C)(C)C)c1 [BUTYLATED HYDROXYTOLUENE]	DILI positive (test set)
CCCC(C)(COC(N)=O)COC(N)=O [MEPROBAMATE]	DILI positive (test set)
CCCCCCCCCCCCCCCC(=O)OC[C@@H](NC(=O)C(Cl)Cl)[C@H](O)c1ccc([N+](=O)[O-])cc1 [CHLORAMPHENICOL PALMITATE]	DILI positive (training set)
C=C(C)[C@H]1CC=C(C)CC1 [D-LIMONENE]	DILI positive (test set)
CC1(C)S[C@@H]2[C@H](NC(=O)[C@H](NC(=O)N3CCNC3=O)c3ccccc3)C(=O)N2[C@H]1C(=O)[O-].[Na+] [AZLOCILLIN SODIUM]	DILI negative (test set)
CC[C@]1(O)C[C@@H]2CN(CCc3c([nH]c4ccccc34)[C@@](C(=O)OC)(c3cc4c(cc3OC)N(C)[C@H]3[C@@](O)(C(=O)OC)[C@H](OC(C)=O)[C@]5(CC)C=CCN6CC[C@]43[C@@H]65)C2)C1.O=S(=O)(O)O [VINBLASTINE SULFATE]	DILI negative (test set)
NC(=O)c1cnccn1 [PYRAZINAMIDE]	DILI positive (training set)
CCCCc1nc(Cl)c(CO)n1Cc1ccc(-c2ccccc2-c2nn[nH]n2)cc1 [LOSARTAN]	DILI positive (test set)
CN1CCC(=C2c3ccccc3CC(=O)c3sccc32)CC1 [KETOTIFEN]	DILI negative (training set)
COc1ccc(CCN2CCC(Nc3nc4ccccc4n3Cc3ccc(F)cc3)CC2)cc1 [ASTEMIZOLE]	DILI negative (training set)
S=C=Nc1ccc2ccccc2c1	DILI negative (test set)

Same assay, conditions: Liver

SMILES	Hepatotoxicity
Nc1c2c(nc3ccccc13)CCCC2 [TACRINE]	DILI negative (training set)
COc1cc([C@@H]2c3cc4c(cc3[C@@H](O[C@@H]3O[C@@H]5CO[C@@H](C)O[C@H]5[C@H](O)[C@H]3O)[C@H]3COC(=O)[C@H]23)OCO4)cc(OC)c1O [ETOPOSIDE]	DILI positive (training set)
c1cc[n+]2c(c1)-c1cccc[n+]1CC2 [DIQUAT]	DILI positive (test set)
CC(=O)OCC[N+](C)(C)C.[Cl-] [ACETYLCHOLINE CHLORIDE]	DILI negative (training set)
Clc1ccccc1CN1CCc2sccc2C1 [TICLOPIDINE]	DILI positive (training set)
